In patent publication US20230226079A1, “METHODS AND COMPOSITIONS FOR TREATMENT OF SOLID TUMORS” (Saint Louis University, priority 2022, published 2023):

What was measured:
Ca127 cells = experiment: Cytotoxicity assay (Cell Counting Kit-8) in Ca127 cells; type: cell-based; conditions: 48 h, treated for 48 h; read-out: IC50 dose, Ca127 cells
From the text: Normal oral keratinocytes (NOK) (kindly gifted by Dr. Karl Mugner, Tuffs University, Boston, MA, USA) were maintained in Keratinocyte SFM medium supplemented with EGF and bovine pituitary extract (GIBCO, Life Technologies, Berkeley, MO, USA) and 1% penicillin/ streptomycin. HNC cell line Ca127 was purchased from the ATCC. JHU029 (JHU-29) and JHU022 (JHU-22) cell lines were procured from the Johns Hopkins University (Baltimore, MD, USA). The Ca127 and JHU022 cells were maintained in Dulbecco's Modified Eagle Medium (DMEM), and JHU029 cells were in RPMI1640 (Sigma, St. Louis, Mo., USA) media supplemented with 10% FBS and 1% penicillin/ streptomycin (Sigma-Aldrich, St. Louis, Mo., USA) in a humidified CO2 incubator. The cell lines are routinely tested in the Inventors' laboratory to rule out mycoplasma contamination using a commercial Mycoplasma Detection kit (MycoAlert™, Lonza, Morrisville, N.C., USA). Ca127 cells are tongue origin and JHU022 and JHU029 cells are from larynx origin.
Bitter melon extract (BME) was prepared from the Chinese variety of young bitter melons (raw and green) as described previously (Rajamoorthi et al. (2013) PLoS ONE; 8, e78006). Briefly, BME was prepared by aqueous extraction from whole fruit without seeds using a household juicer at room temperature with subsequent centrifugation at 15000 g at 4 C for 30 min. BME was stored at −80 C for further analysis. […]

rat cardiac fibroblasts = conditions: cited from earlier work
c-Met and c-Myc = experiment: Western blot of JHU029 tumor lysates; type: in vivo, nude mice; conditions: JHU029 xenograft tumors
Description: Lysates from control, BME or M-I treated cells and tumors were prepared using 2 SDS sample buffer and subjected to western blot analysis using specific antibodies to c-Met (1:500, Cell Signaling Technology, CST, Denvers, Mass., USA,), phospho-STAT3 (pSTAT3-Tyr-705) (1:1000, CST), total STAT3 (1:1000, CST), c-Myc (1:1000, CST), surviving (1:500, Santa Cruz Biotechnology, SBT, Dallas, Tex., USA) and cyclin D1 (1: 500, SBT). HRP conjugated anti-mouse or anti-rabbit secondary antibodies were purchased from Bio-Rad (Hercules, Calif., USA). The blot was reprobed with HRP conjugated -actin antibody (1:5000; SBT) to compare protein load in each lane. Densitometry analysis was done using Image J software (NIH, Bethesda, Md., USA).
JHU029 or Ca127 cells (1.5 10^6) containing 40% Matrigel were injected subcutaneously into the flank of BALB/c athymic nude mice (7-8 weeks old). When the palpable tumor was developed (>60 mm3), mice were divided into three groups randomly, 5 mice in each group. The control group was without any treatment. The BME group received 30% (v/v) BME through drinking water. M-I group received 30 mg/kg dose of M-I once in day, every day. Body weight was monitored, and tumor size was measured using a slide caliper and volume was calculated using the formula 1/2 L X W2. After animal sacrifice tumors were dissected out and snap frozen in liquid nitrogen for further analysis. […]

SMILES: CC(C)=CC(O)CC(C)[C@H]1CC[C@@]2(C)[C@@H]3[C@@H](O)C=C4[C@@H](CC[C@H](O)C4(C)C)[C@]3(C=O)CC[C@]12C (stereo partly drawn) [M-I, (3S, 7S, 8S, 9R, 10R, 13R, 14S, 17R) 3,7-dihydroxy-17-(4-hydroxy-6-methylhept-5-en-2-yl)-4,4,13,14-tetramethyl-2,3,7,8,10,11, 12,15, 16,17-decahydro-1H-cyclopenta[a]phenanthrene-9-carbaldehyde]
- IC50 (Ca127 cells): < 8 µg/mL
- high-glucose-induced cell proliferation and collagen synthesis (rat cardiac fibroblasts): inhibitory effects
- expression of c-Met and c-Myc in tumors versus untreated control (c-Met and c-Myc): significant reduction
